The text below walks through data of US4352817A, “Imidazo-diazepines and their use” (priority 1982, dated 1982).

For data set [1], the target named is central benzodiazepine receptors (cerebral cortex). Briefly: Inhibition of binding of tritiated diazepam at the specific benzodiazepine receptors in the cerebral cortex. The method, then: The affinity of compounds of formula I to the central benzodiazepine receptors was determined according to the method described in Life Science 20, 2101-2110 (1977) and Science 198, 849-851 (1977). According to this method, the inhibition of the binding of tritiated diazepam at the specific benzodiazepine receptors in the cerebral cortex by the respective test substances is ascertained. The IC50 ("50% inhibiting concentration") is that concentration of the respective test substance which brings about a 50 percent inhibition of the specific binding of the tritiated diazepam at the specific benzodiazepine receptors in the cerebral cortex.

In data set [2] the test system is diazepam effect in the pentetrazole test. Briefly: Antagonism of diazepam in the pentetrazole test. The class given is in vivo, mice. To be noted: for ED50: Mus musculus, po, 0.25 h, mice, diazepam 5 mg/kg i.p. 1 hour before pentetrazole 120 mg/kg i.p., test compound p.o. 15 minutes before pentetrazole. The method, then: This property was used to evaluate the test described hereinafter which permits the determination of compounds which are capable of antagonizing the central properties of 1,4-benzodiazepines which have tranquillizing activity.
The antagonistic activity of the compounds investigated, i.e. their ability to counteract the activity of the diazepam in the pentetrazole test, is determined by counting the mice which suffer convulsive attacks in this test.
(§1) In the following Table there are presented the results which have been obtained with representative members of the class of compound defined by formula I in the test previously described. The ED50 is the amount of test compound in mg/kg (p.o.) which counteracts in 50% of the animals the diazepam effect in the above test. Moreover, the Table contains the IC50 value defined above for all test compounds listed therein as well as data concerning the acute toxicity of certain of these compounds (LD50 in mg/kg in the case of single oral administration to mice).

A short description of data set [3]: Acute toxicity, single oral administration to mice. To be noted: mouse, in vivo.
Excerpt: as §1

Data set [4] deals with Schistosoma mansoni. Briefly: Schistosomicidal activity in infected mice. Format: in vivo. To be noted: for Schistosomicidal activity in %: Mouse. The protocol: (§2) Mice and golden hamsters are infected subcutaneously with 60 cercaria of Schistosoma mansoni. About 42 days after the infection, they are treated orally with a single dosage of the preparation to be tested. 5 animals are used per preparation and dosage. 10 untreated animals are used as controls. The animals are killed and dissected 2 weeks (hamster) or 3 weeks (mice) after the treatment. Worm pairs in mesenteric veins, portal vein and liver are dissected-out, counted and the condition of the worms (living or dead) are registered. A schistosomicidal activity of a preparation manifests itself in the appearance of dead worms in the vessels of the liver. Dead worms are never found in untreated control animals. The test is evaluated by calculating the percentage of dead worm pairs in the liver of infected, treated animals.

The subject of data set [5] is Schistosoma mansoni. Briefly: Schistosomicidal activity in infected golden hamsters. The class given is in vivo. To be noted: Hamster. The method, then:
as §2

Data set [6] concerns Schistosoma mansoni. Briefly: In vitro schistosomicidal activity (motility of worm pairs). Also noted: key to Activity: worm pairs motionless within 15 minutes; b: worm pairs show normal motility during the test period of 120 hours. To be noted: for Activity: 37° C., 120 hours. Format: cell-based. The method, then:
In order to test the in vitro activity of preparations, worm pairs of Schistosoma mansoni are isolated from mice and incubated at 37° C. in a nutrient medium. Preparations are added in the form of a solution or as a suspension. The motility of the worms is observed under a microscope and registered during the test period of 120 hours. A schistosomicidal activity of a preparation manifests itself in the more or less rapid loss of motility of the worms. Control worms in the nutrient medium without the addition of a preparation maintain their normal motility during the entire test period of 120 hours.

Regarding `CN1Cc2c(C(=O)OC(C)(C)C)ncn2-c2ccccc2C1=S` [(a) H H --CH3 S, t-butyl 5,6-dihydro-5-methyl-6-thioxo-4H-imidazo[1,5-a][1,4]benzodiazepine-3-carboxylate], the IC50 in data set [1] came out at 8.9 nM. Besides, the ED50 in data set [2] was 7.1 mg/kg.

For the compound `CN1Cc2c(C(=O)OC(C)(C)C)ncn2-c2cccc(Cl)c2C1=O` [(a) H Cl --CH3 O, t-butyl 7-chloro-5,6-dihydro-5-methyl-6-oxo-4H-imidazo[1,5-a][1,4]benzodiazepine-3-carboxylate], in data set [1], the IC50 is 3 nM. The compound further showed an ED50 in data set [2] of 0.2 mg/kg. In data set [3], the LD50 is 312 mg/kg. Besides, the “Schistosomicidal activity in %” value in the data set with Schistosoma mansoni [4] (Compound A 300 mg/kg p.o. alone) and in the data set on Schistosoma mansoni [5] (Compound A 225 mg/kg p.o. alone) was 0% throughout. Besides, the “influence on schistosomicidal activity of compound S” value with Schistosoma mansoni [4] (animal tests (mice and hamsters)) is listed as “not influenced detrimentally”; with Schistosoma mansoni [6] (in vitro test), “not influenced detrimentally”. For the same compound, the Activity result with Schistosoma mansoni [6] (Compound A 25 ug/ml alone) and with Schistosoma mansoni [6] (Compound A 100 ug/ml alone) was “b” in each case.

With `CN1Cc2c(C(=O)OC(C)(C)C)ncn2-c2cccc(C#N)c2C1=O` [(a) H CN --CH3 O, t-butyl 7-cyano-5,6-dihydro-5-methyl-6-oxo-4H-imidazo[1,5-a][1,4]benzodiazepine-3-carboxylate], the IC50 in data set [1] worked out at 10 nM. Moreover, in data set [2], the ED50 is 1.22 mg/kg.

Compound `CN1Cc2c(C(=O)OC(C)(C)C)ncn2-c2ccc(F)cc2C1=O` [(a) F H --CH3 O, t-butyl 8-fluoro-5,6-dihydro-5-methyl-6-oxo-4H-imidazo[1,5-a][1,4]benzodiazepine-3-carboxylate] showed an IC50 in data set [1] of 1.4 nM. In data set [2], the ED50 was determined as 8.4 mg/kg.

Take `CN1Cc2c(C(=O)OC(C)(C)C)ncn2-c2cccc(Br)c2C1=O` [(a) H Br --CH3 O, t-butyl 7-bromo-5,6-dihydro-5-methyl-6-oxo-4H-imidazo[1,5-a][1,4]benzodiazepine-3-carboxylate]: in data set [1], the IC50 amounted to 2.3 nM. This compound also came in with an ED50 in data set [2] of 0.13 mg/kg.

As for `CN1Cc2c(C(=O)OC(C)(C)C)ncn2-c2cccc(I)c2C1=O` [(a) H I --CH3 O, t-butyl 5,6-dihydro-7-iodo-5-methyl-6-oxo-4H-imidazo[1,5-a][1,4]benzodiazepine-3-carboxylate], the IC50 in data set [1] was determined as 2.6 nM. The same compound gave an ED50 in data set [2] of 0.14 mg/kg.

Regarding `CN1Cc2c(C(=O)OC(C)(C)C)ncn2-c2ccccc2C1=O` [(a) H H --CH3 O, t-butyl 5,6-dihydro-5-methyl-6-oxo-4H-imidazo[1,5-a][1,4]benzodiazepine-3-carboxylate], the IC50 in data set [1] was determined as 3.3 nM. Also, the 50% effect level in data set [2] (ED50) was put at a dose of 4.7 mg/kg. For the same compound, the LD50 in data set [3] stood at 625 mg/kg.

Take `CC1N=C(c2ccccc2Cl)c2cc([N+](=O)[O-])ccc2NC1=O` (single isomer, unassigned; (+)) [Compound S, (+)-5-(o-chlorophenyl)-1,3-dihydro-3-methyl-7-nitro-2H-1,4-benzodiazepin-2-one, reference compound]: the “Schistosomicidal activity in %” value with Schistosoma mansoni [4] (Compound S 75 mg/kg p.o. alone) and with Schistosoma mansoni [5] (Compound S 75 mg/kg p.o. alone) was 100% throughout. Moreover, the Activity entry with Schistosoma mansoni [6] (Compound S 25 ug/ml alone) was “a (worm pairs motionless within 15 minutes)”.

Consider `CN1C(=O)CN=C(c2ccccc2)c2cc(Cl)ccc21` [diazepam, reference compound], for which, in data set [2] (diazepam 5 mg/kg i.p., more than 900 mice), the “experimental animals protected from convulsive attacks in the pentetrazole test” value was “protects all experimental animals from convulsive attacks”.

As usually defined, the IC50 is the concentration needed to halve the response being measured. For orientation: ED50 means the dose at which the effect has come halfway, by size or by number of responders. As a reminder, the LD50 is the dose expected to kill half of the subjects tested.
